# Assay results from patent publication US10308639B2, “Phosphatidylinositol 3-kinase inhibitors” (Gilead Sciences, Inc., priority 2014, dated 2019).
# Where two headings read alike, the source gives them in different places.
# Assays:
# Assay type in all cases: biochemical
# [1] = biological target: T1, PI3Kγ (Homo sapiens, UniProt P48736); assay: TR-FRET enzymatic activity assay, PI3Kγ; details: read-out: PI3Kγ IC50
# T1 construct: made in house
# Method in brief: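 Activity measured by time-resolved FRET; each isoform tested in its own enzymatic reaction.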
# [2] = biological target: T2, PI3Kβ (Homo sapiens, UniProt P42338); assay: TR-FRET enzymatic activity assay, PI3Kβ
# T2 construct: made in house
# [3] = biological target: T3, PI3Kδ (Homo sapiens, UniProt O00329); assay: TR-FRET enzymatic activity assay, PI3Kδ
# T3 construct: made in house
# [4] = Table 2, TR-FRET, 2x Km ATP, 30 minutes at 25° C.
# T2 sequence (P42338 whole entry): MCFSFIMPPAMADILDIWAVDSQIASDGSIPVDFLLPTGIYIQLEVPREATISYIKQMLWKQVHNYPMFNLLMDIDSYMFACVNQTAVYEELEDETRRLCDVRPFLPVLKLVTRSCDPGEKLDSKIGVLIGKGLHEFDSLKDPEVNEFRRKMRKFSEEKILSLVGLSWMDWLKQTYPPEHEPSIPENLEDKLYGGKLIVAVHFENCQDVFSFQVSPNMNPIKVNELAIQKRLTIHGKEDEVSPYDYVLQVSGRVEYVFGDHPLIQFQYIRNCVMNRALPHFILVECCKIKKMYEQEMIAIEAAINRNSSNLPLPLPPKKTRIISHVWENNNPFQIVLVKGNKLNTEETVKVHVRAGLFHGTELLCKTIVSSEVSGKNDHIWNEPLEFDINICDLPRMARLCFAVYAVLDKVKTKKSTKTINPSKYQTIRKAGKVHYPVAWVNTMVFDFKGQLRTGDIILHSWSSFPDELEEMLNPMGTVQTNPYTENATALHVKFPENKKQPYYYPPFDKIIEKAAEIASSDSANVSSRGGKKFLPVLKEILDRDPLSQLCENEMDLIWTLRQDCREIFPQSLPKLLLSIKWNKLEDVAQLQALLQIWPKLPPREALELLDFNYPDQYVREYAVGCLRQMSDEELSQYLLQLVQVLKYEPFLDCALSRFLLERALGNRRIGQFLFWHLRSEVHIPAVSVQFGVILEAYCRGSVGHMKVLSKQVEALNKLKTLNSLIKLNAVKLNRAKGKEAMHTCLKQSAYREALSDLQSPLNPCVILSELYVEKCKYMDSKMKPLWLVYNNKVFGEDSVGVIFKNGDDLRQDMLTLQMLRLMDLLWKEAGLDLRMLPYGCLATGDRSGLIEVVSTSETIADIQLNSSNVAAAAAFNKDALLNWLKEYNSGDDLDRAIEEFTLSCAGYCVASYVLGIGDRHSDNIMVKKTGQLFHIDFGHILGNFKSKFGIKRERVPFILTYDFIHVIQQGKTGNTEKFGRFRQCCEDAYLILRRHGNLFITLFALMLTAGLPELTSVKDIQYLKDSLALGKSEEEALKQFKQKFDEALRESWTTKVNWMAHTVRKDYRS
# T2 sequence (P27986 whole entry partner): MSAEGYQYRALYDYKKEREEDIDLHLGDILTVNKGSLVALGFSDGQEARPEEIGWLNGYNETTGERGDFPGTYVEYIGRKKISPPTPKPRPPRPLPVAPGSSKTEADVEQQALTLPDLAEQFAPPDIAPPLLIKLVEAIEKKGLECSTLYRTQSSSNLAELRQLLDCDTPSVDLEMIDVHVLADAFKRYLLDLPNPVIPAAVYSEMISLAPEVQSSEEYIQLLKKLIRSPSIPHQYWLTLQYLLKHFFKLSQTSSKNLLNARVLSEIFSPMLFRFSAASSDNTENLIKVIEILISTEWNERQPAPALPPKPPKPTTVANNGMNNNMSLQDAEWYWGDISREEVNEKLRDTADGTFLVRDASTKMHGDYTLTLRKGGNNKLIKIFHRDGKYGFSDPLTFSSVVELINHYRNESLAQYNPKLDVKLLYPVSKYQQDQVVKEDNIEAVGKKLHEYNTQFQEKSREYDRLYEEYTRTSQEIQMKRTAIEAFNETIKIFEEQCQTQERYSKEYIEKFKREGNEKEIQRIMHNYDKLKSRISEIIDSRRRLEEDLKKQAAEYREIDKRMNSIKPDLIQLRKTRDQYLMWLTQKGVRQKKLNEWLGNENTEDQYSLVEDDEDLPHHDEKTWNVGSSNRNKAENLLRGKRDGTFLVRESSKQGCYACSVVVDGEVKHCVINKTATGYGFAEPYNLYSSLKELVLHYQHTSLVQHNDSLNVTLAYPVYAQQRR
# T3 sequence (O00329 whole entry): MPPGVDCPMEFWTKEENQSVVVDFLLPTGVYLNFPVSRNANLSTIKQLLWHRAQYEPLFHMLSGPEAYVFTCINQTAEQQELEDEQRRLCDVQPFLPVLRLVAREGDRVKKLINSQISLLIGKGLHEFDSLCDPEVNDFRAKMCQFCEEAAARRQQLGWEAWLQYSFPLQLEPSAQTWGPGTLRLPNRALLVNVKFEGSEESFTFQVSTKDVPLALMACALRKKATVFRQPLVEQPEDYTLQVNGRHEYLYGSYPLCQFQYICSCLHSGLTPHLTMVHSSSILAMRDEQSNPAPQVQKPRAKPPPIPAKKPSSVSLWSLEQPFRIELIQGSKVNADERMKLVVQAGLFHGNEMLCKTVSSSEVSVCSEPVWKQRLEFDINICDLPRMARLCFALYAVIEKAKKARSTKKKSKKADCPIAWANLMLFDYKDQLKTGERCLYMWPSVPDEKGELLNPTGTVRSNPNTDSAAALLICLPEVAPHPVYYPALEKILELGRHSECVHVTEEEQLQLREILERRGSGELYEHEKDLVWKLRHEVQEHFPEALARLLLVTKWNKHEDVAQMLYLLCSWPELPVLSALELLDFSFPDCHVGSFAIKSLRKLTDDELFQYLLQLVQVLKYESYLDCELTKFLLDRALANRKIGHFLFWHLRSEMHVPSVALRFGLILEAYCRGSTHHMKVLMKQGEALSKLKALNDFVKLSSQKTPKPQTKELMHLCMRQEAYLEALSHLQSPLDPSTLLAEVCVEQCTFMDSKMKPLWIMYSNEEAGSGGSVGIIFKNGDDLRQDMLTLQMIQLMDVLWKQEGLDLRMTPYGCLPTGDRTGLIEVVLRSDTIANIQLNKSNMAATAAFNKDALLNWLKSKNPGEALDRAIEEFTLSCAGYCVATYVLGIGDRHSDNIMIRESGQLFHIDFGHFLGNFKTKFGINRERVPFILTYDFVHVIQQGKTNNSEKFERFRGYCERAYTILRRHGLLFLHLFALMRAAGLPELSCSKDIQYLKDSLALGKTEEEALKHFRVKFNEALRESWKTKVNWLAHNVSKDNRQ
# T3 sequence (P27986 whole entry partner): as the sequence (P27986 whole entry partner) above
# T1 sequence (P48736 whole entry): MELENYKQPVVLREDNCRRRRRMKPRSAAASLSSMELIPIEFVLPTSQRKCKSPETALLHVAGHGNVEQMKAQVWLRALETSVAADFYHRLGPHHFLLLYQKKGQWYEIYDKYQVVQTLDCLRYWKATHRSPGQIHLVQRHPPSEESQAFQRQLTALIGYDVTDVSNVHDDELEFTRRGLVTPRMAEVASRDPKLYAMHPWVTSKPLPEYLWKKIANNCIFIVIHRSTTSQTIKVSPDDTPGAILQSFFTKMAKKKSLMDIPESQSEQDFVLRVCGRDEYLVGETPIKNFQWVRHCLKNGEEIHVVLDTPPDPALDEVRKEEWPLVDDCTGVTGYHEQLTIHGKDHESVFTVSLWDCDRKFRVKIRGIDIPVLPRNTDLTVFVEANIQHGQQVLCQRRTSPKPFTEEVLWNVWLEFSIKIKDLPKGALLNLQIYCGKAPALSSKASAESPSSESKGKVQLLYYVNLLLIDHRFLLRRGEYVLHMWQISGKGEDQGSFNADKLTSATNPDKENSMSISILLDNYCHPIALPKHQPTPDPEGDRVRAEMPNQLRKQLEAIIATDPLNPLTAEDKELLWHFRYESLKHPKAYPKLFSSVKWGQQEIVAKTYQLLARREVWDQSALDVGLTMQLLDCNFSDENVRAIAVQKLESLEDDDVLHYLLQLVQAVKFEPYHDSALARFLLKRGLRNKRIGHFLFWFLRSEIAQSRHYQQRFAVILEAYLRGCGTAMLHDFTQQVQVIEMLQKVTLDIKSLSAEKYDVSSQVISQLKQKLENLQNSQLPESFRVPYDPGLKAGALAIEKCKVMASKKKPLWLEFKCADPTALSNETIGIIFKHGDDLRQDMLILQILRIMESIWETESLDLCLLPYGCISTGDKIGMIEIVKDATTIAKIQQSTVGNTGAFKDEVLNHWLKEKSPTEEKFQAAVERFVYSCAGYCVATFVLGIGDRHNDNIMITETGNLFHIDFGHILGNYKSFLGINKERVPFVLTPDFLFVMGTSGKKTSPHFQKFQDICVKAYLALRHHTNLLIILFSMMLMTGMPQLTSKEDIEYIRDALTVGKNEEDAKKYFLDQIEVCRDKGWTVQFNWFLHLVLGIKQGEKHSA
"IC50 [1, 4] [nM]","IC50 [2, 4] [nM]","IC50 [3, 4] [nM]","IC50 ([1]; Table 2a, same assay) [nM]","IC50 ([2]; Table 2a, same assay) [nM]","IC50 ([3]; Table 2a, same assay) [nM]",IC50 [1] [nM],Structure (SMILES)
1400,21,10,–,–,–,–,"CC[C@H](Nc1nc(N)nc(N)c1C#N)c1nc2c(C)ccc(F)c2c(=O)n1-c1cn[nH]c1 [Compound 35, (S)-2,4-diamino-6-((1-(5-fluoro-8-methyl-4-oxo-3-(1H-pyrazol-4-yl)-3,4-dihydroquinazolin-2-yl)propyl)amino)pyrimidine-5-carbonitrile]"
–,–,–,3100,200,34,–,"Cc1c[nH]nc1-n1c([C@@H](Nc2nc(N)nc(Cl)c2C#N)C2CC2)nc2cccc(Cl)c2c1=O [Compound 243, (S)-2-amino-4-chloro-6-(((5-chloro-3-(4-methyl-1H-pyrazol-3-yl)-4-oxo-3,4-dihydroquinazolin-2-yl)(cyclopropyl)methyl)amino)pyrimidine-5-carbonitrile]"
–,–,–,330,4,1,–,"C[C@H](Nc1nc(N)nc(N)c1C#N)c1nc2c(Cl)cc(F)cc2c(=O)n1-c1c[nH]cn1 [Compound 285, (S)-2,4-diamino-6-((1-(8-chloro-6-fluoro-3-(1H-imidazol-4-yl)-4-oxo-3,4-dihydroquinazolin-2-yl)ethyl)amino)pyrimidine-5-carbonitrile]"
–,120,9,–,–,–,> 10000,"CC[C@H](Nc1ncnc2ccoc12)c1nc2c(Cl)ccc(Cl)c2c(=O)n1-c1cc[nH]n1 [Compound 62, (S)-5,8-dichloro-2-(1-(furo[3,2-d]pyrimidin-4-ylamino)propyl)-3-(1H-pyrazol-3-yl)quinazolin-4(3H)-one]"
9000,170,4,–,–,–,–,"C[C@H](Nc1ncnc2scnc12)c1nc2c(Cl)ccc(Cl)c2c(=O)n1-c1n[nH]cc1Br [Compound 85, (S)-3-(4-bromo-1H-pyrazol-3-yl)-5,8-dichloro-2-(1-(thiazolo[5,4-d]pyrimidin-7-ylamino)ethyl)quinazolin-4(3H)-one]"
2400,49,11,–,–,–,–,"Nc1nc(N)c(Cl)c(N[C@@H](c2ccccc2)c2nc3cccc(Cl)c3c(=O)n2-c2cn[nH]c2)n1 [Compound 107, (S)-5-chloro-2-(((2,6-diamino-5-chloropyrimidin-4-yl)amino)(phenyl)methyl)-3-(1H-pyrazol-4-yl)quinazolin-4(3h)-one]"
–,190,53,–,–,–,> 10000,"CC[C@H](Nc1nc(N)nc(N)c1Cl)c1nc2c(C#N)cccc2c(=O)n1-c1cc[nH]n1 [Compound 78, (S)-2-(1-((2,6-diamino-5-chloropyrimidin-4-yl)amino)propyl)-4-oxo-3-(1H-pyrazol-3-yl)-3,4-dihydroquinazoline-8-carbonitrile]"
–,–,–,3000,53,8,–,"Nc1nc(N)c(Cl)c(N[C@H](c2nc3cccc(Cl)c3c(=O)n2-c2c[nH]cn2)C2CC2)n1 [Compound 287, (S)-5-chloro-2-(cyclopropyl((2,6-diamino-5-chloropyrimidin-4-yl)amino)methyl)-3-(1H-imidazol-4-yl)quinazolin-4(3H)-one]"
1500,100,8,–,–,–,–,"CC[C@H](Nc1ncnc2ccc(Cl)nc12)c1nc2c(C#N)cccc2c(=O)n1-c1cn[nH]c1 [Compound 94, (S)-2-(1-((6-chloropyrido[3,2-d]pyrimidin-4-yl)amino)propyl)-4-oxo-3-(1H-pyrazol-4-yl)-3,4-dihydroquinazoline-8-carbonitrile]"
–,–,–,> 10000,120,27,–,"CCC[C@H](Nc1nc(N)nc(N)c1Cl)c1nc2ccc(F)c(Cl)c2c(=O)n1-c1cc[nH]n1 [Compound 267, (S)-5-chloro-2-(1-((2,6-diamino-5-chloropyrimidin-4-yl)amino)butyl)-6-fluoro-3-(1H-pyrazol-3-yl)quinazolin-4(3H)-one]"
–,–,–,> 10000,537,300,–,"C[C@H](Nc1nc(N)nc(C(F)F)c1Cl)c1nc2cccc(Cl)c2c(=O)n1-c1cc[nH]n1 [Compound 225, (S)-2-(1-((2-amino-5-chloro-6-(difluoromethyl)pyrimidin-4-yl)amino)ethyl)-5-chloro-3-(1H-pyrazol-3-yl)quinazolin-4(3H)-one]"
–,–,–,405,5,1,–,"N#Cc1c(N)nc(N)nc1N[C@H](c1nc2ccc(F)c(Cl)c2c(=O)n1-c1cc[nH]n1)C1CC1 [Compound 262, (S)-2,4-diamino-6-(((5-chloro-6-fluoro-4-oxo-3-(1H-pyrazol-3-yl)-3,4-dihydroquinazolin-2-yl)(cyclopropyl)methyl)amino)pyrimidine-5-carbonitrile]"
–,–,–,710,1,0.2,–,"C[C@H](Nc1nc(N)nc(N)c1C#N)c1nc2c(Cl)cc(F)cc2c(=O)n1-c1cc[nH]n1 [Compound 279, (S)-2,4-diamino-6-((1-(8-chloro-6-fluoro-4-oxo-3-(1H-pyrazol-3-yl)-3,4-dihydroquinazolin-2-yl)ethyl)amino)pyrimidine-5-carbonitrile]"
6300,0.6,2,–,–,–,–,"CC[C@H](Nc1nc(N)nc(C)c1C#N)c1nc2c(C#N)cccc2c(=O)n1-c1cc[nH]n1 [Compound 76, (S)-2-(1-((2-amino-5-cyano-6-methylpyrimidin-4-yl)amino)propyl)-4-oxo-3-(1H-pyrazol-3-yl)-3,4-dihydroquinazoline-8-carbonitrile]"
67,2,0.6,–,–,–,–,"N#Cc1c(N)nc(N)nc1N[C@H](c1nc2cccc(Cl)c2c(=O)n1-c1cn[nH]c1)C1CC1 [Compound 17, (S)-2,4-diamino-6-(((5-chloro-4-oxo-3-(1H-pyrazol-4-yl)-3,4-dihydroquinazolin-2-yl)(cyclopropyl)methyl)amino)pyrimidine-5-carbonitrile]"
–,–,–,14,62,0.5,–,"C[C@H](Nc1ncnc2scc(C#N)c12)c1nc2cccc(Cl)c2c(=O)n1-c1cc[nH]n1 [Compound 202, (S)-4-((1-(5-chloro-4-oxo-3-(1H-pyrazol-3-yl)-3,4-dihydroquinazolin-2-yl)ethyl)amino)thieno[2,3-d]pyrimidine-5-carbonitrile]"
–,39,9,–,–,–,> 10000,"CC[C@H](Nc1ncnn2ccnc12)c1nc2c(Cl)ccc(Cl)c2c(=O)n1-c1cc[nH]n1 [Compound 43, (S)-5,8-dichloro-2-(1-(imidazo[2,1-f][1,2,4]triazin-4-ylamino)propyl)-3-(1H-pyrazol-3-yl)quinazolin-4(3H)-one]"
5100,1,0.6,–,–,–,–,"O=c1c2c(Cl)ccc(Cl)c2nc([C@@H](Nc2ncnc3scnc23)C2CC2)n1-c1cc[nH]n1 [Compound 37, (S)-5,8-dichloro-2-(cyclopropyl(thiazolo[5,4-d]pyrimidin-7-ylamino)methyl)-3-(1H-pyrazol-3-yl)quinazolin-4(3H)-one]"
–,–,–,280,20,36,–,"C[C@H](NC(=O)c1nc(Cl)c(N)nc1N)c1nc2cccc(Cl)c2c(=O)n1-c1cc[nH]n1 [Compound 276, (S)-3,5-diamino-6-chloro-N-(1-(5-chloro-4-oxo-3-(1H-pyrazol-3-yl)-3,4-dihydroquinazolin-2-yl)ethyl)pyrazine-2-carboxamide]"
–,1800,830,–,–,–,> 10000,"C[C@H](Nc1nc(N)nc2[nH]ncc12)c1nc2cccc(Cl)c2c(=O)n1-c1cc[nH]n1 [Compound 90, (S)-2-(1-((6-amino-1H-pyrazolo[3,4-d]pyrimidin-4-yl)amino)ethyl)-5-chloro-3-(1H-pyrazol-3-yl)quinazolin-4(3H)-one]"
410,4,1,–,–,–,–,"Cc1nc(N)nc(N[C@@H](c2ccccc2)c2nc3cccc(Cl)c3c(=O)n2-c2cc[nH]n2)c1C#N [Compound 110, (S)-2-amino-4-(((5-chloro-4-oxo-3-(1H-pyrazol-3-yl)-3,4-dihydroquinazolin-2-yl)(phenyl)methyl)amino)-6-methylpyrimidine-5-carbonitrile]"
–,380,29,–,–,–,> 10000,"CC[C@H](Nc1ncnc2[nH]cnc12)c1nc2c(Cl)ccc(Cl)c2c(=O)n1-c1cn[nH]c1 [Compound 57, (S)-2-(1-((9H-purin-6-yl)amino)propyl)-5,8-dichloro-3-(1H-pyrazol-4-yl)quinazolin-4(3H)-one]"
2200,17,4,–,–,–,–,"CC[C@H](Nc1nc(N)nc(N)c1C#N)c1nc2ccc(F)cc2c(=O)n1-c1cc[nH]n1 [Compound 112, (S)-2,4-diamino-6-((1-(6-fluoro-4-oxo-3-(1H-pyrazol-3-yl)-3,4-dihydroquinazolin-2-yl)propyl)amino)pyrimidine-5-carbonitrile]"
–,9,2,–,–,–,> 10000,"O=c1c2c(Cl)cccc2nc([C@H](CO)Nc2ncnc3scnc23)n1-c1cc[nH]n1 [Compound 51, (R)-5-chloro-2-(2-hydroxy-1-(thiazolo[5,4-d]pyrimidin-7-ylamino)ethyl)-3-(1H-pyrazol-3-yl)quinazolin-4(3H)-one]"
1300,3,0.6,–,–,–,–,"O=c1c2c(Cl)cccc2nc([C@@H](Nc2ncnc3scnc23)C2CC2)n1-c1cc[nH]n1 [Compound 26, (S)-5-chloro-2-(cyclopropyl(thiazolo[5,4-d]pyrimidin-7-ylamino)methyl)-3-(1H-pyrazol-3-yl)quinazolin-4(3H)-one]"

Structure (SMILES),"IC50 [1, 4] [nM]","IC50 [2, 4] [nM]","IC50 [3, 4] [nM]","IC50 ([1]; Table 2a, same assay) [nM]","IC50 ([2]; Table 2a, same assay) [nM]","IC50 ([3]; Table 2a, same assay) [nM]",IC50 [1] [nM]
"C[C@H](NC(=O)c1nccnc1N)c1nc2cccc(Cl)c2c(=O)n1-c1cc[nH]n1 [Compound 121, (S)-3-amino-N-(1-(5-chloro-4-oxo-3-(1H-pyrazol-3-yl)-3,4-dihydroquinazolin-2-yl)ethyl)pyrazine-2-carboxamide]",890,79,20,–,–,–,–
